# Source: patent publication US20260166045A1, “COMBINATION THERAPY COMPRISING GSPT1-DIRECTED MOLECULAR GLUE DEGRADERS AND PI3K/AKT/mTOR PATHWAY INHIBITORS” (Monte Rosa Therapeutics, Inc., priority 2022, published 2026)
# Where “and” joins values, the source holds several entries; their conditions need not be identical. Equal entries are not always repeated.
# What was measured:
# Assay in all cases: CellTiter-Glo 2.0 cell viability, 7x7 combination dose response matrix, synergy scoring
# Assay type in all cases: cell-based
# [1] = tested on: CAL51 cell line; details: CAL51
# Text: (§1) A study was undertaken to determine whether the combination of a GSPT1-directed MGD and an inhibitor of the PI3K/AKT/mTOR pathway could be effective in killing cancer cells and whether certain combination could elicit a greater than additive effect on cell killing.
# (§2) FIG. 1 is a flow diagram of the method used to assess cancer cell killing by a combination of a GSPT1-directed MGD and an inhibitor of the PI3K/AKT/mTOR pathway. Certain of the materials and equipment used in the studies are presented in Table 3 and the cell lines used are presented in Table 4.
# (§3) All assays were run in triplicate. Each 384-well plate accommodated six 7×7 dose response matrices (FIG. 2). All compound handling was performed using an Echo 650 Series Acoustic Liquid Handler, which enables fully automated, precise, contact-free acoustic transfer in volumes as low as 2.5 nL.
# (§4) The following protocol was used for cell plating: • 1. Warm media to room temperature or 37° C. • 2. Prepare complete phenol-free media by adding 10% FBS+1% Pen-Strep to RPMI 1640 Medium or DMEM. • 3. Aspirate media from T175 tissue culture flask and rinse with 10 ml PBS. • 4. Aspirate PBS and add 2 mL 0.25% trypsin. Incubate the flask at 37° C. for 5 min or until cells are detached. • 5. Add 10 mL complete media to the flask to neutralize the trypsin, then collect cells in a 50 mL conical tube. • 6. Centrifuge cells at 300 g for 5 min. Aspirate media and suspend cell pellet in fresh media. Use cell strainer to strain cells into a new 50 mL conical tube. • 7. […] Mix 100 uL cell suspension with 100 uL trypan blue (1:1) and pipette 20 μL of the mixture into each of 2 counting chambers on a slide. Insert slide. • b. Adjust focus and record the live cell count. At least 2 independent measurements should be taken. […] Cell viability should be greater than 90%. […] Dilute cell suspension to the desired concentration (20000 cells/mL) using complete phenol-free media. Prepare 10 mL cell suspension per plate+an extra 10 mL for priming the liquid handler. • 9. Dispense cells into 384-well plates using the liquid handler at 25 uL/well (500 cells/well). 3 plates should be prepared per compound plate to be treated. • 10. Cells should be dispensed into columns 1-23 only. Media only (no cells) should be dispensed into column 24. • 11. Allow plates to rest at RT for 30 minutes before transferring to the incubator. Incubate cells overnight at 37° C., 95% humidity, and 5% CO2.
# (§5) Compound plates were prepared as follows using an Echo 650 Series Acoustic Liquid Handler. • 1. A compound plate containing 7-point dose responses of each compound to be treated is first prepared from stock compounds. • 2. The cell plates are treated with compounds according to the following maps, where the first compound is added across all six 7 by 7 dose response matrices, and its concentration varies by row (FIG. 2; top matrix), whereas the second compound varies for each dose response matrix, and its concentration varies by column (FIG. 2; bottom matrix). Each cell plate receives one Compound A and six different Compound Bs. • 3. To prepare a compound plate, 384-well PP plate with stock compounds (highest concentration) is prepared. Compounds are diluted 1:1000 in the cell plates, e.g. 10 mM on compound plate will be 10 uM on cell plate. A 384-well LDV plate with pre-determined volumes of DMSO is prepared. Echo is used to dilute stock compounds from PP plate into LDV plate to prepare 7-point dose responses.
# (§6) Compounds were added to the cells and cell viability was measured after 72 hour incubation using CellTiter-Glo 2.0 Cell Viability Assay (Promega): • 1. For a compound addition, Echo is used to transfer 25 nL from the compound plate wells to the cell plates according to the plate maps shown in FIG. 2. Cell plates are treated in triplicate. Each well of the cell plate has 25 uL media (1:1000 dilution). Incubate cells post-treatment at 37° C., 95% humidity, and 5% CO2 for 72 hrs (step 106). • 2. […]
# [2] = tested on: CAL51 mutant cell line; details: first compound 0.41-100 nM
# Text: as §1, §2, §3, §4, §5, §6
# [3] = tested on: EBC-1 cell line
# Text: as §1, §2, §3, §4, §5, §6
# [4] = tested on: MCF7 cell line
# Text: as §1, §2, §3, §4, §5, §6
# [5] = tested on: MDA-MB-157 cell line; details: first compound 0.41-100 nM
# Text: as §1, §2, §3, §4, §5, §6
# [6] = combined with Alpelisib 41-10000 nM, first compound 0.41-33.33 nM
# [7] = combined with Alpelisib 41-10000 nM, first compound 0.41-100 nM
# [8] = combined with Everolimus 41-10000 nM, first compound 0.41-100 nM
# [9] = combined with GNE-477 41-10000 nM, first compound 0.41-100 nM
# [10] = combined with HS173 41-10000 nM, first compound 0.41-100 nM
# [11] = combined with KU-0063794 41-10000 nM, first compound 0.41-100 nM
# [12] = combined with M2698 41-10000 nM, first compound 0.41-100 nM
# [13] = combined with Serabelisib 41-10000 nM, first compound 0.41-100 nM
# [14] = combined with Alpelisib 41-10000 nM
# [15] = combined with Capivasertib 41-10000 nM
# [16] = combined with Everolimus 4.1-1000 nM
# [17] = combined with GNE-477 41-10000 nM
# [18] = combined with KU-0063794 41-10000 nM
# [19] = combined with M2698 41-10000 nM
# [20] = EBC-1, combined with Alpelisib 21-10000 nM, first compound 0.21-100 nM
# [21] = EBC-1, combined with Capivasertib 21-10000 nM, first compound 0.21-100 nM
# [22] = EBC-1, combined with Everolimus 2.1-1000 nM, first compound 0.21-100 nM
# [23] = EBC-1, combined with GNE-477 21-10000 nM, first compound 0.21-100 nM
# [24] = EBC-1, combined with KU-0063794 21-10000 nM, first compound 0.21-100 nM
# [25] = EBC-1, combined with M2698 21-10000 nM, first compound 0.21-100 nM
# [26] = MCF7, combined with Alpelisib 41-10000 nM, first compound 0.41-33.33 nM
# [27] = MCF7, combined with Capivasertib 41-10000 nM, first compound 0.41-100 nM
# [28] = MCF7, combined with Everolimus 41-10000 nM, first compound 0.41-100 nM
# [29] = MCF7, combined with GNE-477 41-10000 nM, first compound 0.41-100 nM
# [30] = MCF7, combined with HS173 41-10000 nM, first compound 0.41-100 nM
# [31] = MCF7, combined with KU-0063794 41-10000 nM, first compound 0.41-100 nM
# [32] = MCF7, combined with M2698 41-10000 nM, first compound 0.41-100 nM
# [33] = MCF7, combined with Serabelisib 41-10000 nM, first compound 0.41-100 nM
# [34] = combined with Everolimus 41-10000 nM
compound,measurement,setting,value
"Cc1ccc(NC(=O)OCc2ccc3c(c2)C(=O)N(C2CCC(=O)NC2=O)C3)cc1Cl (stereo not drawn) [Compound 1-6, [2-(2,6-dioxopiperidin-3-yl)-3-oxo-2,3-dihydro-1H-isoindol-5-yl]methyl N-(3-chloro-4-methylphenyl)carbamate]",Mean Bliss synergy score,[1]; [6],4.15
same,Mean Loewe synergy score,[1]; [6],7.89
same,Mean Bliss synergy score,[1]; [7],13.06 and 19.57
same,Mean Loewe synergy score,[1]; [7],11.36 and 7.04
same,Mean Bliss synergy score,"[1]; combined with Capivasertib 41-10000 nM, first compound 0.41-100 nM",24.03 and 20.68
same,Mean Bliss synergy score,[1]; [8],20.31
same,Mean Loewe synergy score,[1]; [8],22.83
same,Mean Bliss synergy score,[1]; [9],5.80
same,Mean Loewe synergy score,[1]; [9],6.34
same,Mean Bliss synergy score,[1]; [10],4.98
same,Mean Loewe synergy score,[1]; [10],1.89
same,Mean Bliss synergy score,[1]; [11],12.93
same,Mean Loewe synergy score,[1]; [11],8.26
same,Mean Bliss synergy score,[1]; [12],11.87 and 11.78
same,Mean Loewe synergy score,[1]; [12],12.09 and 12.43
same,Mean Bliss synergy score,[1]; [13],4.74
same,Mean Loewe synergy score,[1]; [13],0.94
same,Mean Bliss synergy score,[2]; [14],−0.63
same,Mean Loewe synergy score,[2]; [14],−1.04
same,Mean Bliss synergy score,[2]; [15],0.95
same,Mean Loewe synergy score,[2]; [15],−0.06
same,Mean Bliss synergy score,[2]; [16],−1.53
same,Mean Loewe synergy score,[2]; [16],−0.66
same,Mean Bliss synergy score,[2]; [17],−1.35
same,Mean Loewe synergy score,[2]; [17],−2.34
same,Mean Bliss synergy score,[2]; [18],−1.01
same,Mean Loewe synergy score,[2]; [18],−0.85
same,Mean Bliss synergy score,[2]; [19],0.82
same,Mean Loewe synergy score,[2]; [19],−0.62
same,Mean Bliss synergy score,[3]; [20],17.01
same,Mean Loewe synergy score,[3]; [20],3.84
same,Mean Bliss synergy score,[3]; [21],16.12
same,Mean Loewe synergy score,[3]; [21],6.11
same,Mean Bliss synergy score,[3]; [22],7.12
same,Mean Loewe synergy score,[3]; [22],8.08
same,Mean Bliss synergy score,[3]; [23],10.24
same,Mean Loewe synergy score,[3]; [23],2.07
same,Mean Bliss synergy score,[3]; [24],8.70
same,Mean Loewe synergy score,[3]; [24],4.67
same,Mean Bliss synergy score,[3]; [25],8.18
same,Mean Loewe synergy score,[3]; [25],8.00
same,Mean Loewe synergy score,"[3]; combined with Everolimus (2.1 nM to 1 uM), EBC-1 cell line, mean across dose response matrix, 72 hrs",8.08
same,Mean Bliss synergy score,[4]; [26],3.23
same,Mean Loewe synergy score,[4]; [26],9.38
same,Mean Loewe synergy score,"[4]; MCF7, combined with Alpelisib 41-10000 nM, first compound 0.41-100 nM",10.18 and 8.52
same,Mean Bliss synergy score,[4]; [27],14.01 and 11.86
same,Mean Loewe synergy score,[4]; [27],12.75 and 11.61
same,Mean Bliss synergy score,[4]; [28],10.05
same,Mean Loewe synergy score,[4]; [28],17.80
same,Mean Bliss synergy score,[4]; [29],0.14
same,Mean Loewe synergy score,[4]; [29],6.12
same,Mean Bliss synergy score,[4]; [30],0.74
same,Mean Loewe synergy score,[4]; [30],3.72
same,Mean Bliss synergy score,[4]; [31],5.02
same,Mean Loewe synergy score,[4]; [31],9.44
same,Mean Bliss synergy score,[4]; [32],2.92 and 3.60
same,Mean Loewe synergy score,[4]; [32],10.25 and 9.07
same,Mean Bliss synergy score,[4]; [33],4.69
same,Mean Loewe synergy score,[4]; [33],4.49
same,Mean Loewe synergy score,"[4]; combined with Capivasertib, MCF7 cell line (printed in Example 5, lung cancer cell lines), mean across dose response matrix, 72 hrs",16.02
same,Mean Loewe synergy score,"[4]; combined with KU-0063794 (41 nM to 10 uM), MCF7 cell line, mean across dose response matrix, 72 hrs",9.44
same,Mean Bliss synergy score,[5]; [14],1.84
same,Mean Loewe synergy score,[5]; [14],3.29
same,Mean Bliss synergy score,[5]; [15],6.73
same,Mean Loewe synergy score,[5]; [15],5.04
same,Mean Bliss synergy score,[5]; [34],4.15
same,Mean Loewe synergy score,[5]; [34],9.01
same,Mean Bliss synergy score,[5]; [17],0.86
same,Mean Loewe synergy score,[5]; [17],4.66
same,Mean Bliss synergy score,[5]; [18],1.22
same,Mean Loewe synergy score,[5]; [18],5.42
same,Mean Loewe synergy score,[5]; [19],5.62 and 4.44
